Calls of active or inactive are those of the source. The calls are words filed in the database; no cut-off is given here.
What was measured:
Homo sapiens = assay: fAUC in human at 1 gram administered every 12 hrs; type: ADME, organism-based; conditions: in vivo
Staphylococcus aureus [1] = assay: Antibacterial activity against vancomycin-intermediate Staphylococcus aureus isolate 454 (NRS404) infected in neutropenic BALB/c mouse lung infection model assessed as reduction of CFU at 110 mg/kg, ip administered every 12 hrs measured after 24 hrs; type: functional, organism-based; parameters: dose 110 mg/kg
Staphylococcus aureus [2] = assay: Antibacterial activity against hospital-associated methicillin-resistant Staphylococcus aureus isolate 152 infected in neutropenic BALB/c mouse lung infection model assessed as reduction of CFU at 110 mg/kg, ip administered every 12 hrs measured after 24 hrs; type: functional, organism-based; parameters: dose 110 mg/kg
Staphylococcus aureus [3] = assay: Antibacterial activity against vancomycin-intermediate Staphylococcus aureus isolate 435 infected in neutropenic BALB/c mouse lung infection model assessed as reduction of CFU at 110 mg/kg, ip administered every 12 hrs measured after 24 hrs; type: functional, organism-based; parameters: dose 110 mg/kg
Staphylococcus aureus [4] = assay: Antibacterial activity against community-associated methicillin-resistant Staphylococcus aureus isolate 156 infected in neutropenic BALB/c mouse lung infection model assessed as reduction of CFU at 110 mg/kg, ip administered every 12 hrs measured after 24 hrs; type: functional, organism-based; parameters: dose 110 mg/kg
Mus musculus = assay: fAUC in BALB/c mouse at 110 mg/kg, sc administered every 12 hrs; conditions: in vivo
Staphylococcus aureus [5] = assay: Antibacterial activity against vancomycin-intermediate Staphylococcus aureus isolate 453 (NRS23) infected in neutropenic BALB/c mouse lung infection model assessed as reduction of CFU at 110 mg/kg, ip administered every 12 hrs measured after 24 hrs; type: functional, organism-based; parameters: dose 110 mg/kg
Staphylococcus aureus [6] = assay: Antibacterial activity against community-associated methicillin-resistant Staphylococcus aureus isolate 145 infected in neutropenic BALB/c mouse lung infection model assessed as reduction of CFU at 110 mg/kg, ip administered every 12 hrs measured after 24 hrs; type: functional, organism-based; parameters: dose 110 mg/kg
Staphylococcus aureus [7] = assay: Antibacterial activity against hospital-associated methicillin-resistant Staphylococcus aureus isolate 412 infected in neutropenic BALB/c mouse lung infection model assessed as reduction of CFU at 110 mg/kg, ip administered every 12 hrs measured after 24 hrs; type: functional, organism-based; parameters: dose 110 mg/kg
Staphylococcus aureus [8] = assay: Antibacterial activity against vancomycin-heteroresistant Staphylococcus aureus isolate 443 infected in neutropenic BALB/c mouse lung infection model assessed as reduction of CFU at 110 mg/kg, ip administered every 12 hrs measured after 24 hrs; type: functional, organism-based; parameters: dose 110 mg/kg
Staphylococcus aureus [9] = assay: Antibacterial activity against vancomycin-intermediate Staphylococcus aureus isolate 440 (A6298) infected in neutropenic BALB/c mouse lung infection model assessed as reduction of CFU at 110 mg/kg, ip administered every 12 hrs measured after 24 hrs; type: functional, organism-based; parameters: dose 110 mg/kg
Staphylococcus aureus [10] = assay: Antibacterial activity against hospital-associated methicillin-resistant Staphylococcus aureus isolate 56 (494) infected in neutropenic BALB/c mouse lung infection model assessed as reduction of CFU at 110 mg/kg, ip administered every 12 hrs measured after 24 hrs; type: functional, organism-based; parameters: dose 110 mg/kg
Staphylococcus aureus [11] = assay: Antibacterial activity against hospital-associated methicillin-resistant Staphylococcus aureus isolate 336 infected in neutropenic BALB/c mouse lung infection model assessed as reduction of CFU at 110 mg/kg, ip administered every 12 hrs measured after 24 hrs; type: functional, organism-based; parameters: dose 110 mg/kg
Staphylococcus aureus [12] = assay: Antibacterial activity against vancomycin-heteroresistant Staphylococcus aureus isolate 38 (Mu3) infected in neutropenic BALB/c mouse lung infection model assessed as reduction of CFU at 110 mg/kg, ip administered every 12 hrs measured after 24 hrs; type: functional, organism-based; parameters: dose 110 mg/kg
[13] = AUC (0 to 12 hrs) in BALB/c mouse at 110 mg/kg, sc; conditions: plasma
Staphylococcus aureus [14] = assay: Antibacterial activity against hospital-associated methicillin-resistant Staphylococcus aureus isolate 360 infected in neutropenic BALB/c mouse lung infection model assessed as reduction of CFU at 110 mg/kg, ip administered every 12 hrs measured after 24 hrs; type: functional, organism-based; parameters: dose 110 mg/kg

With `CN[C@H](CC(C)C)C(=O)N[C@H]1C(=O)N[C@@H](CC(N)=O)C(=O)N[C@H]2C(=O)N[C@H]3C(=O)N[C@H](C(=O)N[C@H](C(=O)O)c4cc(O)cc(O)c4-c4cc3ccc4O)[C@H](O)c3ccc(c(Cl)c3)Oc3cc2cc(c3O[C@@H]2O[C@H](CO)[C@@H](O)[C@H](O)[C@H]2O[C@H]2C[C@](C)(N)[C@H](O)[C@H](C)O2)Oc2ccc(cc2Cl)[C@H]1O` [VANCOMYCIN] the fAUC (Homo sapiens) was 208 µg·h/mL, the Activity (Staphylococcus aureus [1]) was “Active” and the Activity (Staphylococcus aureus [2]) was “Active”. The Activity (Staphylococcus aureus [3]) was “Active”, the Activity (Staphylococcus aureus [4]) was “Active” and the fAUC (Mus musculus) was 196 µg·h/mL. The Activity (Staphylococcus aureus [5]) was “Active”, the Activity (Staphylococcus aureus [6]) was “Active” and the Activity (Staphylococcus aureus [7]) was “Active”. For the same compound, the Activity (Staphylococcus aureus [8]) was “Active”, the Activity (Staphylococcus aureus [9]) was “Active” and the Activity (Staphylococcus aureus [10]) was “Active”. For the same compound, the Activity (Staphylococcus aureus [11]) was “Active”, the Activity (Staphylococcus aureus [12]) was “Active” and the AUC(0-t) at 12 h [13] was 140 µg·h/mL. For the same compound, the Activity (Staphylococcus aureus [14]) was “Active”.
